Source: patent publication US12662451B2, “Chemical compounds and uses thereof” (GLAXOSMITHKLINE INTELLECTUAL PROPERTY (NO.4) LIMITED, priority 2023, dated 2026)
Like-named read-outs stand apart in the source and are kept apart here.

Assays:
[1] = target: T1, recombinant full-length WRN protein (1-1432) (Homo sapiens, UniProt Q14191); test: WRN unwinding activity, fluorogenic 384-well assay (Example A); assay type: biochemical; settings: WRN unwinding activity, 4 hr; Table 2; read-out: 4 hr UNW pIC50 (converted)
T1 construct: recombinant full-length WRN protein (1-1432)
T1 sequence (Q14191 whole entry): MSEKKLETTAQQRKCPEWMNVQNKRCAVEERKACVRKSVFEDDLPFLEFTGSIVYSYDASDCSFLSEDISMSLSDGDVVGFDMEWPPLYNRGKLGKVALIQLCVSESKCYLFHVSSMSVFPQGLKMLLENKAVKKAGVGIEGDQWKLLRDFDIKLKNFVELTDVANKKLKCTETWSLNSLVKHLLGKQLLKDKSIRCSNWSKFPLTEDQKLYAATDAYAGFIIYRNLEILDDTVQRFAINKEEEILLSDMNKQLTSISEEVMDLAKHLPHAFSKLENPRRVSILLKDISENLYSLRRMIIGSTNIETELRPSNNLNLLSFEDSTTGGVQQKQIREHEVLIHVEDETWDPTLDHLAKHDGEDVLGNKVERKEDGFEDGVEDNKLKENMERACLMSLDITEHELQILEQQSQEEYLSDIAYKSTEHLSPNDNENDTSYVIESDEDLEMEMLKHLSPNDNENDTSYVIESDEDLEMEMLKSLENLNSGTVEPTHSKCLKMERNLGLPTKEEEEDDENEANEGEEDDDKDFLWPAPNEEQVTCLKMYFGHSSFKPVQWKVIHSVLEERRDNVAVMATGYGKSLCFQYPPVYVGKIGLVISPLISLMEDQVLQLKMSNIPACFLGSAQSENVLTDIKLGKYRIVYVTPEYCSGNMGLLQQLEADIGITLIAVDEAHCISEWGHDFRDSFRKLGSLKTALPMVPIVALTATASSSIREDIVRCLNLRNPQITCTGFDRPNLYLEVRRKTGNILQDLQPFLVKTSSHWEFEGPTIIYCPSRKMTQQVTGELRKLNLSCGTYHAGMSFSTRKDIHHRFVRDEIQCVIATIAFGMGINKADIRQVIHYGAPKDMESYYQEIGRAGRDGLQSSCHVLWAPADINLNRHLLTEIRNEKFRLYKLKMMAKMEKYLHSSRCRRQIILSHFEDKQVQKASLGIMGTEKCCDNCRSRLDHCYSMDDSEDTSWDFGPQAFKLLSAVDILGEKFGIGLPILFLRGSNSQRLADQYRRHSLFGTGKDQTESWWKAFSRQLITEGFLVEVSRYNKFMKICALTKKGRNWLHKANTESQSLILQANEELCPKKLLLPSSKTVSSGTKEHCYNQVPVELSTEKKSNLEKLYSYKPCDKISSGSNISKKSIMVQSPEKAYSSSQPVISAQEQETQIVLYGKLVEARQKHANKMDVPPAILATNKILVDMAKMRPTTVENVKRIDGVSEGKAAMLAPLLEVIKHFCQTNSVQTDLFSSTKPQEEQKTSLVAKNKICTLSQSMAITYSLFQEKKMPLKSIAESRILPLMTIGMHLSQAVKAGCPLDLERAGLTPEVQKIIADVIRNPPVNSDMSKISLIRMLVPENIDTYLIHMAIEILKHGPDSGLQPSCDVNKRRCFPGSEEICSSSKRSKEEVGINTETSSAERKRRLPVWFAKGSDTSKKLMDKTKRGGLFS
Procedure, shortened: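 Read-out is end-point unwinding of a fluorophore/quencher duplex (ex 525, em 598 nm) after 60 min with 200 μM ATP and 12 nM DNA (2× stocks), EDTA stop. Compound first sat 4 h with 200 pM WRN (2× stock) in pH 8.0 Tris buffer; four-parameter fit gives pIC50.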

[2] = Cell culture media unbound percentage and stability by rapid equilibrium dialysis (Example C); assay type: in vitro ADME; settings: bovine, cell assay medium (RPMI-1640 with 10% fetal bovine serum), pH 7.4, rapid equilibrium dialysis, 4 hours at 37° C., read-out: Cell Culture Media Binding (% unbound)
Procedure, shortened: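 Percent unbound in cell assay medium came from the LC-MS/MS receiver:donor peak area ratio, with stability taken as the 240 min over 0 min ratio. Set-up: 1 μM nominal compound in medium dialysed against pH 7.4 PBS (100 mM phosphate, 150 mM NaCl), 4 h, 37° C, shaken, in triplicate.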

[3] = test system: SW48 human colorectal cancer cells; test: Calculated free drug potency in SW48 cell assay, corrected with media free fraction (Example C); assay type: cell-based; settings: Homo sapiens, SW48, SW48 pCC50 corrected with measured free fraction in cell assay media
Procedure, shortened: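 Free drug potency derives from correcting SW48 assay concentrations with the unbound fraction in medium. That fraction came from RED against pH 7.4 PBS, 1 μM nominal compound, 4 h at 37 °C, quantified by LC-MS/MS peak area ratios at T=240 versus T=0 min.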

[4] = test system: SW48 human colorectal cancer cells (MSI-H cancer cells); test: SW48 cell viability, CellTiter-Glo, 120 hours (Example B); settings: Homo sapiens
[5] = SW48, 120 h, read-out: SW48 pCC50, SW48 cell viability, 120 hours incubation (converted), Table 2
[6] = SW48, read-out: SW48 pCC50, measured potency from Example B, as repeated in Table 3 (converted)

Structure (SMILES) | IC50 [1] [nM] | fraction unbound at 4 h, 1 µM [2] | CC50 [3] [nM] | CC50 [4, 5] [nM] | CC50 [4, 6] [nM]
CN(c1ccc([C@H]2CCC[C@@H](C(=O)Nc3ccc(C(F)(F)F)cc3F)[C@@H]2C(=O)O)cc1)S(=O)(=O)c1ccccc1 [Example 109, (1R,2R,6S)-2-((2-fluoro-4-(trifluoromethyl)phenyl)carbamoyl)-6-(4-(N-methylphenylsulfonamido)phenyl)cyclohexane-1-carboxylic acid] | 1 | 0.0829 | 105 | 1260 | 1260
CN(c1ccc([C@H]2CCC[C@@H](C(=O)Nc3ccc(C(F)(F)F)cc3F)[C@@H]2C(=O)O)cc1)S(=O)(=O)c1ccc2ccn(C)c2c1 [Example 110, (1R,2S,6R)-2-(4-((N,1-dimethyl-1H-indole)-6-sulfonamido)phenyl)-6-((2-fluoro-4-(trifluoromethyl)phenyl)carbamoyl)cyclohexane-1-carboxylic acid] | 3.98 | 0.0085 | 10.7 | 1260 | 1260
CN(c1ccc([C@H]2CCC[C@@H](C(=O)Nc3ccc(C(F)(F)F)cc3F)[C@@H]2C(=O)O)cc1)S(=O)(=O)c1ccc2c(c1)OCC2 [Example 112, (1R,2R,6S)-2-((2-fluoro-4-(trifluoromethyl)phenyl)carbamoyl)-6-(4-((N-methyl-2,3-dihydrobenzofuran)-6-sulfonamido)phenyl)cyclohexane-1-carboxylic acid] | 2.51 | 0.0405 | 32.4 | 794 | 794
CN(c1ccc([C@H]2CCC[C@@H](C(=O)Nc3ccc(C(F)(F)F)cc3F)[C@@H]2C(=O)O)cc1)S(=O)(=O)c1cccc(C2CNC(=O)C2)c1 (stereo partly drawn) [Example 113, (1R,2R,6S)-2-((2-fluoro-4-(trifluoromethyl)phenyl)carbamoyl)-6-(4-((N-methyl-3-(5-oxopyrrolidin-3-yl)phenyl)sulfonamido)phenyl)cyclohexane-1-carboxylic acid] | 1.58 | 0.0899 | 56.2 | 631 | 631
CN1CCC[C@@H](c2cccc(S(=O)(=O)N(C)c3ccc([C@H]4CCC[C@@H](C(=O)Nc5ccc(C(F)(F)F)cc5F)[C@@H]4C(=O)O)cc3)c2)C1 [Example 116, (1R,2R,6S)-2-((2-fluoro-4-(trifluoromethyl)phenyl)carbamoyl)-6-(4-((N-methyl-3-((S)-1-methylpiperidin-3-yl)phenyl)sulfonamido)phenyl)cyclohexane-1-carboxylic acid] | 1.58 | 0.286 | 145 | 501 | 501
CN(c1ccc([C@H]2CCC[C@@H](C(=O)Nc3ccc(C(F)(F)F)cc3F)[C@@H]2C(=O)O)cc1)S(=O)(=O)c1cccc(C(=O)N2CCOCC2)c1 [Example 119, (1R,2R,6S)-2-((2-fluoro-4-(trifluoromethyl)phenyl)carbamoyl)-6-(4-((N-methyl-3-(morpholine-4-carbonyl)phenyl)sulfonamido)phenyl)cyclohexane-1-carboxylic acid] | 1.58 | 0.231 | 229 | 1000 | 1000
CN(c1ccc([C@H]2CCC[C@@H](C(=O)Nc3ccc(C(F)(F)F)cc3F)[C@@H]2C(=O)O)cc1)S(=O)(=O)c1cccc(C2CC2(F)F)c1 (stereo partly drawn) [Example 120, (1R,2S,6R)-2-(4-((3-(2,2-difluorocyclopropyl)-N-methylphenyl)sulfonamido)phenyl)-6-((2-fluoro-4-(trifluoromethyl)phenyl)carbamoyl)cyclohexane-1-carboxylic acid] | 10 | 0.0107 | 33.9 | 3160 | 3160
CN(C)c1nc2cc(S(=O)(=O)N(C)c3ccc([C@H]4CCC[C@@H](C(=O)Nc5ccc(C(F)(F)F)cc5F)[C@@H]4C(=O)O)cc3)ccc2n1C [Example 121, (1R,2S,6R)-2-(4-((2-(dimethylamino)-N, 1-dimethyl-1H-benzo[d]imidazole)-5-sulfonamido)phenyl)-6-((2-fluoro-4-(trifluoromethyl)phenyl)carbamoyl)cyclohexane-1-carboxylic acid] | 3.16 | 0.0195 | 6.17 | 316 | 316
CN1CCOc2ccc(S(=O)(=O)N(C)c3ccc([C@H]4CCC[C@@H](C(=O)Nc5ccc(C(F)(F)F)cc5F)[C@@H]4C(=O)O)cc3)cc21 [Example 122, (1R,2S,6R)-2-(4-((N,4-dimethyl-3,4-dihydro-2H-benzo[b][1,4]oxazine)-6-sulfonamido)phenyl)-6-((2-fluoro-4-cyclohe(trifluoromethyl)phenyl)carbamoyl)xane-1-carboxylic acid] | 7.94 | 0.0056 | 5.62 | 1000 | 1000
CN1CCN(C)c2cc(S(=O)(=O)N(C)c3ccc([C@H]4CCC[C@@H](C(=O)Nc5ccc(C(F)(F)F)cc5F)[C@@H]4C(=O)O)cc3)ccc21 [Example 123, (1R,2R,6S)-2-((2-fluoro-4-(trifluoromethyl)phenyl)carbamoyl)-6-(4-((N,1,4-trimethyl-1,2,3,4-tetrahydroquinoxaline)-6-sulfonamido)phenyl)cyclohexane-1-carboxylic acid] | 3.98 | 0.0071 | 3.55 | 501 | 501
Cc1nc2cc(S(=O)(=O)N(C)c3ccc([C@H]4CCC[C@@H](C(=O)Nc5ccc(C(F)(F)F)cc5F)[C@@H]4C(=O)O)cc3)cnc2n1C [Example 124, (1R,2R,6S)-2-((2-fluoro-4-(trifluoromethyl)phenyl)carbamoyl)-6-(4-((N,2,3-trimethyl-3H-imidazo[4,5-b]pyridine)-6-sulfonamido)phenyl)cyclohexane-1-carboxylic acid] | 3.98 | 0.097 | 49 | 501 | 501
Cc1nc2cc(S(=O)(=O)N(C)c3ccc([C@H]4CCC[C@@H](C(=O)Nc5ccc(C(F)(F)F)cc5F)[C@@H]4C(=O)O)cc3)ncc2n1C [Example 125, (1R,2R,6S)-2-((2-fluoro-4-(trifluoromethyl)phenyl)carbamoyl)-6-(4-((N,2,3-trimethyl-3H-imidazo[4,5-c]pyridine)-6-sulfonamido)phenyl)cyclohexane-1-carboxylic acid] | 2 | 0.0433 | 69.2 | 1580 | 1580
Cc1nc2cc(S(=O)(=O)N(C)c3ccc([C@H]4CCC[C@@H](C(=O)Nc5ccc(C(F)(F)F)cc5F)[C@@H]4C(=O)O)cc3)cc(F)c2n1C [Example 126, (1R,2R,6S)-2-((2-fluoro-4-(trifluoromethyl)phenyl)carbamoyl)-6-(4-((7-fluoro-N, 1,2-trimethyl-1H-benzo[d]imidazole)-5-sulfonamido)phenyl)cyclohexane-1-carboxylic acid] | 6.31 | 0.058 | 36.3 | 631 | 631
Cc1nc2cc(S(=O)(=O)N(C)c3ccc([C@H]4CCC[C@@H](C(=O)Nc5ccc(C(F)(F)F)cc5F)[C@@H]4C(=O)O)cc3)c(F)cc2n1C [Example 127, (1R,2R,6S)-2-((2-fluoro-4-(trifluoromethyl)phenyl)carbamoyl)-6-(4-((6-fluoro-N,1,2-trimethyl-1H-benzo[d]imidazole)-5-sulfonamido)phenyl)cyclohexane-1-carboxylic acid] | 3.98 | 0.0443 | 44.7 | 1000 | 1000
Cc1nc2c(F)c(S(=O)(=O)N(C)c3ccc([C@H]4CCC[C@@H](C(=O)Nc5ccc(C(F)(F)F)cc5F)[C@@H]4C(=O)O)cc3)ccc2n1C [Example 128, (1R,2R,6S)-2-((2-fluoro-4-(trifluoromethyl)phenyl)carbamoyl)-6-(4-((4-fluoro-N,1,2-trimethyl-1H-benzo[d]imidazole)-5-sulfonamido)phenyl)cyclohexane-1-carboxylic acid] | 3.98 | 0.0452 | 45.7 | 1000 | 1000
Cc1nc2cc(S(=O)(=O)N(C)c3ccc([C@H]4CCC[C@@H](C(=O)Nc5ccc(C(F)(F)F)cc5F)[C@@H]4C(=O)O)cc3)cc(Cl)c2n1C [Example 129, (1R,2S,6R)-2-(4-((7-chloro-N,1,2-trimethyl-1H-benzo[d]imidazole)-5-sulfonamido)phenyl)-6-((2-fluoro-4-(trifluoromethyl)phenyl)carbamoyl)cyclohexane-1-carboxylic acid] | 20 | 0.0143 | 9.12 | 631 | 631
